Measurements as given in patent US20250090437A1, “COSMETIC COMPOUNDING AGENT, COSMETIC AND PRODUCTION METHOD THEREOF” (MIYOSHI OIL & FAT CO., LTD., priority 2019, published 2025).

How the values were obtained:
[1] = Affinity to hair (contact angle); settings: 50 wt % aqueous solution; condition B (hair iron, 160° C.)
[2] = Solubility of active ingredient (glutamic acid) in aqueous solution of the compound; settings: in 1.8 g compound + 8.2 g ion-exchange water
keratin [3] = assay: Stabilization effect of hair treatment agent on keratin (IR, 130° C., seven days); settings: treated keratin after 130° C. for seven days
Experimental: Here, 0.3 g of the keratin that had been treated in 4-1 was placed into a thermostatic device of 130° C. and left to stand still therein for seven days. After seven days, an IR spectrum of the keratin obtained was measured; by measuring an absorption derived from the α-helix secondary structure of amide, a stabilization effect of the hair treatment agent on the structure of keratin was evaluated.
Next, IR measurement was carried out after performing the heating test at 130° C. to obtain peaks derived from each amide and an intensity ratio(s) thereof to a reference peak (reference peak (derived from C—N) 1086 cm^−1, peak 1654 cm^−1 derived from the α-helix secondary structure of amide). The intensity ratio (X) was evaluated as “intensity of reference peak:intensity of peak derived from amide=1:X,” by reading the absorption intensity of the reference peak and the intensity of the peak derived from amide.

[4] = Sensory evaluation on damaged hair after using organic ammonium salt; parameters: species or system human; settings: damaged hair, 80 wt % aqueous solution
Experimental: Here, an 80 wt % aqueous solution(s) of each of the compounds B11, B12, B23, B26 and B27 (content in terms of anhydride in the cases of the compounds B11, B12 and B23) were prepared and used as samples. Next, one minute was spent in evenly applying 10.0 g of each sample to a bundle of the damaged hairs weighing about 10 g, using a brush; the bundle of the damaged hairs was then left for 5 min. After leaving it for 5 min, the bundle of the damaged hairs was rinsed with a hot water of 40° C. for 30 sec, and evaluated was a finger-combing capability at the time of performing washing. The hair bundle that had been rinsed was then dried with a towel and further subjected to air drying for a day, followed by evaluating items such as elasticity/resilience (feeling by bare hands), cohesiveness, surface smoothness and non-waviness, from the perspective of superiority or inferiority to a test hair bundle(s) uncoated with the sample.

[5] = Surface resistance measurement of organic ammonium salt; settings: 0.7 g applied to polyurethane artificial leather; liquid state; uncoated greater than 4×10^11Ω
keratin [6] = assay: Keratin adherability; settings: 1 g keratin in 2 g of 50 wt % aqueous solution, 25° C., 24 hours
Experimental: Here, 1 g of a powdery keratin (by Tokyo Chemical Industry Co., Ltd.) (pre-test keratin) was added to 2 g of a 50 wt % aqueous solution of each of the compounds B11, B23, B26 and B27, followed by performing stirring at 25° C. for 24 hours. After stirring, filtration was performed, and a powdery keratin obtained was then dried so as to obtain a keratin that had been treated (post-test keratin).
A rate of compound adhesion to keratin was calculated with the following formula.

[7] = Water retention property and adherability with respect to healthy hair; parameters: species or system human
[8] = Sensory evaluation on healthy hair after using conditioner containing organic ammonium salt; parameters: species or system human; settings: conditioner containing 3.0% by mass of the compound
Experimental: Here, 4.5% by mass of a stearyl alcohol (KALCOL 8688 by Kao Corporation), 2.0% by mass of a behenyl alcohol (KALCOL 220-80 by Kao Corporation) and 0.5% by mass of a phenoxyethanol (Hisolve EPH by TOHO Chemical Industry Co., Ltd.) were mixed together and heated to 75° C. to obtain a liquid A. Further, 3.0% by mass of a behentrimonium chloride (CATINAL DC-80 by TOHO Chemical Industry Co., Ltd.), 5.0% by mass of dipropylene glycol and 3.0% by mass of each of the compounds B11, B23, B26, B27 and B28 (content in terms of anhydride in the cases of the compounds B11 and B23) were added together, followed by adding a purified water thereto, and then melting them at 80° C., thus obtaining a liquid B. The liquid B was then gradually added to the liquid A, and stirring was performed at 75° C. for 20 min. Next, the mixture was cooled to a temperature of 40° C. or lower, and a purified water of an evaporated amount was then added thereto so that the whole hair treatment composition would be 100% by mass, followed by uniformly mixing them so as to obtain a hair treatment composition(s).
About 5 g of the healthy hair was dipped into and kept immersed in 150 g of a seven-time dilute aqueous solution of each of the abovementioned hair treatment compositions (conditioners) at 40° C. for 30 min. […] After air drying, a combing capability, cohesiveness and non-stickiness of the hair were evaluated.

## OCC(O)CO [Compound A52, glycerin, reference compound]
[1]
  Contact angle of water droplet on treated hair: not indifferent from that of the untreated product
[2]
  Amount of dissolution Glutamic acid: <0.08 g
Keratin [3]
  α-helix secondary structure of keratin after heating: maintained
[4]
  After air drying: Cohesiveness of hair: Δ~X
  After air drying: Elasticity/Resilience: Δ~X
  After air drying: Smoothness of hair surface: Δ~X
  After air drying: Suppression of hair waviness: Δ~X
  When washing: Finger-combing capability: Δ~X
[5]
  Surface resistance value: 5×10^8 Ω
Keratin [6]
  Rate of compound adhesion to keratin: 11.0%
[7]; healthy hair immersed 60 min in 80 wt % aqueous solution, after 24 hours at 40° C., 35 to 40% RH, pre-test 7.6%
  Post-test moisture rate: 5.3%
[7]; healthy hair immersed 60 min in 80 wt % aqueous solution, listed as B26
  Compound adhesion rate: 1.0%
[7]; healthy hair, 80 wt % aqueous solution, 24 hours at 40° C., 35 to 40% RH
  Rate of reduction in moisture: 30%
[8]
  Combing capability, cohesiveness and non-stickiness of healthy hair after conditioner: slightly inferior
